# Assay: Patch irritancy test on test subject's skin
# Conditions: control diluted to 0.2 percent of the original volume into deionized water
compound,measurement,value
CCCCCCCCCCCCOS(=O)(=O)[O-].[Na+] [Sodium Lauryl Sulfate],Classification,Experimental Cumulative
same,Irritancy Score,14918.5

# From patent publication US20100261630A1, “ANTIMICROBIAL HAND WASH FORMULATIONS” (priority 2006, published 2010)
